Measured values from patent publication US20030186943A1, “Substituted gamma-phenyl-delta-lactams and uses related thereto” (Inflazyme Pharmaceuticals Ltd., priority 1998, published 2003).
pIC50: −log10 of the molar value. Like-named read-outs stand apart in the source and are kept apart here.

Columns and labels:
[1] = tested on: primary human neutrophils; assay: Generation of reactive oxygen species by fMLP-activated neutrophils (luminol-enhanced chemiluminescence); format: cell-based; settings: Neutrophil
Excerpt: Neutrophil activation can be measured by quantitation of ROS generated in vitro. Measurement of ROS allows specific quantitation of a pro-inflammatory species and is also a general measure of neutrophil activation. The most sensitive method for measuring the production of ROS by neutrophils is luminol-enhanced chemiluminescence. […] The assay system used to evaluate the ability of compounds to inhibit ROS generation in neutrophils is indicative of anti-inflammatory activity that may be efficacious in disease states including but not limited to rheumatoid arthritis and inflammatory bowel disease.
Freshly isolated primary human neutrophils (5×10^6 cells/mL) were incubated with the required concentrations of compound or vehicle for 30 minutes at 37° C. in HBSS buffer (pH 7.4) containing Ca^2+. 100 nM wortmannin was used as a positive control. Aliquots of each sample were transferred to a microtitre plate to which luminol (1 μM); obtained from Sigma; Catalogue No. A8511 is added. Activation of the neutrophils was immediately initiated by addition of (1 μM) fMLP; obtained from Sigma, Catalogue No. F3506. Light output from each well was recorded for 30 minutes in a microplate luminometer. Total light output (integral of the time-course) was determined for each well. Inhibitory activities of test drugs against neutrophil ROS generation is expressed as percentage activity relative to a no drug control (100% activation or generation of ROS) containing 0.25% DMSO. Concentration of test compound required to inhibit the generation of ROS to 50% of control values (IC50's) were determined from concentration-response curves by non-linear regression analysis.

[2] = tested on: primary human neutrophils; assay: fMLP-induced human neutrophil chemotaxis; format: cell-based; settings: fMLP-induced chemotaxis, X marks this range, read-out: IC50 RANGE (μM) 1-10
Procedure: Chemotaxis buffer containing the chemoattractant fMLP (10 μM) was added to each well of a chemotaxis plate and a filter was inserted ensuring contact between the filter and the chemotaxis buffer in the well. A submaximal concentration of chemoattractant was used which had been determined in previous experiments. […] Freshly isolated neutrophils (1×10^6) were incubated with vehicle (0.125% DMSO)±test compound for 1 hr at 37° C. Treatment and control cell suspensions were then gently resuspended and 20 μL of cells was added to the top side of the filter on each well. The plate was incubated for 1.5 hours at 37° C. under 5% CO2. Cells were then removed from the top side of the filter by aspiration and the entire plate was centrifuged. The filter was removed and known concentrations of cells were added to unused wells to prepare a standard curve. XTT (Sigma; Catalogue No. X 4251)/PMS (Sigma; Catalogue No. P 7626) solution prepared in buffer was added to each well and the cells were further incubated 1-2 hours and measured for absorbance at 450 nm. Absorbance values were converted to cell numbers using the standard curve. IC50 values are averages from at least three separate experiments with triplicate determinations.

[3] = tested on: Resiniferitoxin-induced mouse ear edema; assay: Resiniferitoxin-induced mouse ear edema; format: in vivo; settings: CD1 mice; for inhibition in vivo at 100 mg/kg: ip, intraperitoneal administration
Excerpt: One of the primary characteristics of inflammation is an increase in vascular dilation and permeability leading to the extravasation of, and collection of fluids in, the interstitium, resulting in redness and swelling. Rheumatoid arthritis in particular is characterized by pronounced edema of affected joints resulting in significant pain and stiffness. The mouse ear inflammation model is a standard in vivo assay for inflammation that is based on an increase in ear weight which is attributable to edema induced by inflammatory mediators. RTX (resiniferitoxin; Sigma; Catalogue No. R 8756)) is a diterpene isolated from the plant Euphorbia poisonii and is an ultrapotent analog of capsaicin. RTX acts by selectively stimulating nociceptive and thermal-sensitive nerve ending in tissue, eliciting neurogenic edema. Compounds of the present invention, whether administered topically, intraperitoneally or orally, inhibited development of edema induced by topical application of RTX.
Mice (CD1, Charles River Laboratories) were separated into groups (n—5−8) and tagged. Control mice had RTX (0.1 μg/ear) applied topically to the inner and outer sides of the left ear and vehicle applied to the right ear as a control. For topical administration, experimental/treatment mice received RTX+test compound solution (50 μg/ear) on the left ear and acetone on the right ear. For intraperitoneal (i.p.) administration, 100 mg/kg test compound dissolved in 100 μL PEG 200:saline (1:1) was injected followed by a 30 minute waiting period then the standard 30 minute RTX edema induction. For oral (p.o.) administration, 10 mg/kg test compound in 100 μL PEG-200 was given to animals, then edema induced using 0.1 μg/ear RTX after a 1.5 hour waiting period. After edema induction, mice were sacrificed, and a standard disc of ear tissue was removed. Each disk of tissue was immediately weighed to the nearest 1/10th of a mg. Data were analyzed by taking the difference of each left ear from the right ear, calculating the mean+/−SEM. Statistical significance was tested by 2-sample t-test on the left/right ear weight differences of the control group vs. the experimental group.

[4] = target: T1, cAMP phosphodiesterase 3 from human platelets (Homo sapiens, UniProt Q14432); assay: Inhibition of cAMP phosphodiesterase 3 from human platelets; format: biochemical; settings: PDE3, platelet cell extract, X marks this range; for IC50: read-out: IC50 range (μM) 10-100
T1 construct: from tissue; host or cells: human platelets, cytoplasmic extract
T1 sequence (Q14432 whole entry): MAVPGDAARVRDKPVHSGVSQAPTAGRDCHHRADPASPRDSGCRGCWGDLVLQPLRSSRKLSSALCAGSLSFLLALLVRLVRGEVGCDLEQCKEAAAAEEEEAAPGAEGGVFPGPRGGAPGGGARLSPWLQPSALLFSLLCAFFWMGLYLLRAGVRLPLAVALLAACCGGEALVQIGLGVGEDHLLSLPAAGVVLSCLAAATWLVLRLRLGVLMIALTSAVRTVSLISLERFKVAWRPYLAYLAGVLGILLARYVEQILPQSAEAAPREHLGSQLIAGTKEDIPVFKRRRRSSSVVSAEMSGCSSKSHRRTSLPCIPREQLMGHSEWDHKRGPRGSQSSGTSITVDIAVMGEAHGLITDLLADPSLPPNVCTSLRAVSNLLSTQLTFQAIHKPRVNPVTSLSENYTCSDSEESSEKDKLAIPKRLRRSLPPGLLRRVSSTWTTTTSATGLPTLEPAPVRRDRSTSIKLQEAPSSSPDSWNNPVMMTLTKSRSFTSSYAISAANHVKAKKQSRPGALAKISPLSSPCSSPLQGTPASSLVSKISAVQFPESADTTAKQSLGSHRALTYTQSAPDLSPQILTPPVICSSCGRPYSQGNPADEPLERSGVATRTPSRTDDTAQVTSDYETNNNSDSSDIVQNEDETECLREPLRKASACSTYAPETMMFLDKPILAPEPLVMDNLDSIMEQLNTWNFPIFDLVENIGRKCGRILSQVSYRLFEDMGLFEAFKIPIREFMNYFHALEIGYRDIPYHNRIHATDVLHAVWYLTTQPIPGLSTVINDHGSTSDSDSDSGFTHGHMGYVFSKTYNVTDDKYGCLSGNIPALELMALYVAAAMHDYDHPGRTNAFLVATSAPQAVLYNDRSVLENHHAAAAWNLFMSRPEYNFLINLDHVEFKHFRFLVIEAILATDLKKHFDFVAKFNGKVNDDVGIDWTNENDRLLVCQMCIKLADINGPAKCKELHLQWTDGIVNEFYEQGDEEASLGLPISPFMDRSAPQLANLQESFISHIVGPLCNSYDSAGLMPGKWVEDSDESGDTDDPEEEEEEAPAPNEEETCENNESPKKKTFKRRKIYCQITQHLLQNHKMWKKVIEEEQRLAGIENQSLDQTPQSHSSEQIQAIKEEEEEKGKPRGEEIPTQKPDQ
Excerpt: Compound 12 was screened for activity against 5 of the major classes of mammalian cyclic nucleotide phosphodiesterase (termed PDE 1 through 5). PDE's 1 through 4 utilize cAMP as substrate while PDE 5 uses cGMP. The broad specificity PDE inhibitor 3-isobutyl-1-methylxanthine (IBMX; Sigma; Catalogue No. 17018)) was used as a positive control in all assays. PDE's for the various assays were partially purified from the following cells/tissues; PDE 1 (bovine heart), PDE 2 (human platelets), PDE 3 (human platelets), PDE 4 (human promonocytic U937 cells) and PDE 5 (human platelets).
Platelet cell extracts were prepared as described above for the U937 cells. The PDE3 assay was performed using platelet cell extract as described above for the PDE 4 assay. Platelets contain PDE 2, 3 and 5. However PDE2 and 5 preferentially utilize cGMP, so in an assay with cAMP as a substrate they are not detected.

[5] = tested on: High Affinity Rolipram Binding Site of PDE4 in Mouse Brain; assay: Displacement of [3H]-rolipram from its high affinity binding site (HARBS); settings: ratio of IC50 for PDE4 catalytic activity to concentration displacing 50% of rolipram from HARBS
Procedure: Suspension was centrifuged twice at 30,000×G at 4° C. and the supernatant discarded. The pellet was resuspended in buffer, and adjusted to a protein concentration of 0.5 mg/mL. Drugs to be tested were dissolved in DMSO and pipetted in triplicate into a 96 well microplate at concentrations ranging from 1 to 30,000 nM. […] The plate was incubated at 4° C. for 1 hour. Contents of the plate were aspirated through a Whatman GF/C filterplate, and rinsed with 4×200 μL ice-cold buffer. […] Triplicate determinations were performed at each concentration.

[6] = tested on: cAMP response element luciferase activity in human U937 monocytic cells; assay: Potentiation of forskolin-induced CRE-luciferase activity in U937 cells; format: cell-based; settings: U-937, U937 cells co-incubated with 10 μM forskolin, 4 hours, X marks this range
Procedure: Compounds of the present invention were thereby shown to provide potentiated luciferase expression in U937 cells treated with the adenylyl cyclase activator forskolin.
Human pro-monocytic U937 cells were maintained in RPMI medium containing 10% FCS and 2 mM […]. U937 cells were transiently transfected as described in Biotechniques Vol. 17(6):1058, 1994. Briefly, cells were grown in medium containing serum to a density of 5×10^6 cells/mL and then resuspended in media containing serum at a density of approximately 1×10^7 cells/mL. 400 μL of cells were transferred into the electroporation cuvette containing 10 μg of the reporter vector (PCRE-luc) in a volume of 40 μL H2O. Reporter vector DNA was prepared from DH5α E. coli using the DNA […] free kit (Qiagen) as per manufacturers instructions. U937 cells were clectroporated at room temperature using a BIORAD electroporator. Capacitance was set to 1050 μF and voltage was 280V. The time constant was noted after each electroporation. Cells were then diluted in 4 mL of media and serum and 200 μL of cells were plated per well. Cells were allowed to recover for 16-18 hours. Cells were then treated with a test compound or vehicle in the presence or absence of 10 μM forskolin for 4 hours at 37° C.
The luciferase assay was performed as per manufacturers instructions (Tropix). Briefly, cells were centrifuged for 4 minutes at 1200 rpm and media supernatant was removed. Cell pellets were lysed in 15 μL Lysis buffer (Tropix). Luciferase assay was performed using 10 μL of cell lysate with 10 μL of buffer A and 25 μL buffer B. Luciferase activity was obtained using a luminometer with a 5-second delay followed by a read time of 10 seconds.

[7] = ROS production, X marks this range, read-out: IC50 RANGE (μM) 1-10
[8] = Mus musculus, topical administration, 50 μg/ear, RTX 0.1 μg/ear
[9] = read-out: IC50 RANGE (μM) <1, ROS production, X marks this range
[10] = read-out: EC50 range (μM) 0.1-1

Row | pIC50 [4] | PDE4:HARBS [5] | EC50 ([6]; read-out: EC50 range (μM) 1-25) [µM] | IC50 [1, 9] [µM] | Structure (SMILES) | also measured
1 | – | – | – | – | BrCc1ccc(OCc2ccccc2)c(OCc2ccccc2)c1 [Compound 78, 3,4-dibenzyloxy benzyl bromide] | inhibition in vivo at 50 µg/ear [3, 8]: 93%
2 | – | – | – | – | COc1ccc([C@@H](CO)CCC(=O)OC(C)(C)C)cc1OCc1ccccc1 [Compound 91] | % Inhibition of Edema ([3]; topical administration, 50 μg/ear, RTX 0.1 μg/ear): 27%
3 | – | – | – | – | COc1ccc([C@@H]2CCC(=O)OC2)cc1OCc1ccccc1 [Compound 92] | inhibition in vivo at 50 µg/ear [3, 8]: 93%
4 | – | – | – | – | COc1ccc([C@@H]2CCC(=O)OC2)cc1OC(C)=O [Compound 103] | inhibition in vivo at 50 µg/ear [3, 8]: 94%
5 | – | <1 | 1 to 25 | < 1 | COc1cc(CC2CC(c3ccc(OC)c(OC)c3)COC2=O)ccc1O (stereo not drawn) [Compound 129] | IC50 [2]: 1 to 10 µM; IC50 [4]: 10 to 100 µM
6 | – | <1 | 1 to 25 | < 1 | COc1cc(C[C@@H]2C[C@H](c3ccc(OC)c(OC)c3)COC2=O)ccc1O [Compound 130] | IC50 [2]: 1 to 10 µM; IC50 [4]: 10 to 100 µM
7 | – | <1 | 1 to 25 | < 1 | COc1ccc([C@H]2COC(=O)C(Cc3ccc(OC)c(OCc4ccccc4)c3)C2)cc1OC (stereo partly drawn) [Compound 135] | IC50 [4]: 10 to 100 µM
8 | < 4.00 | <1 | 1 to 25 | – | COc1ccc([C@@H]2CCC(=O)OC2)cc1OC(C)C [Compound 155] | IC50 [1, 7]: 1 to 10 µM; EC50 [6, 10]: 0.1 to 1 µM
9 | < 4.00 | 1 | – | < 1 | C=C(C)COc1cc([C@@H]2CCC(=O)OC2)ccc1OC [Compound 156] | EC50 [6, 10]: 0.1 to 1 µM
10 | < 4.00 | >1 | – | < 1 | COc1ccc([C@@H]2CCC(=O)OC2)cc1OCC1CCC1 [Compound 157] | EC50 [6, 10]: 0.1 to 1 µM
11 | < 4.00 | <1 | 1 to 25 | < 1 | COc1ccc([C@H]2COC(=O)C(Cc3ccccc3)C2)cc1OC1CCCC1 (stereo partly drawn) [Compound 168] | –
12 | < 4.00 | <1 | – | – | COc1ccc([C@H]2COC(=O)C(Cc3ccccc3[N+](=O)[O-])C2)cc1OC1CCCC1 (stereo partly drawn) [Compound 174] | IC50 ([1]; read-out: IC50 RANGE (μM) >100, ROS production, X marks this range): > 100 µM; EC50 ([6]; read-out: EC50 range (μM) >25): > 25 µM
13 | < 4.00 | <1 | 1 to 25 | – | COc1ccc([C@H]2COC(=O)C(Cc3cccc([N+](=O)[O-])c3)C2)cc1OC1CCCC1 (stereo partly drawn) [Compound 175] | IC50 [1, 7]: 1 to 10 µM
14 | < 4.00 | <1 | – | – | COc1ccc(CC2(Cc3ccc(OC)c(O)c3)C[C@@H](c3ccc(OC)c(OC4CCCC4)c3)COC2=O)cc1O [Compound 181] | IC50 [1, 7]: 1 to 10 µM; EC50 ([6]; read-out: EC50 range (μM) >25): > 25 µM
15 | < 4.00 | >1 | 1 to 25 | < 1 | COc1ccc([C@H]2COC(=O)C(Cc3cccc(N)c3)C2)cc1OC1CCCC1 (stereo partly drawn) [Compound 184] | –

Row | Structure (SMILES) | pIC50 [4] | PDE4:HARBS [5] | EC50 ([6]; read-out: EC50 range (μM) 1-25) [µM] | IC50 [1, 9] [µM] | also measured
16 | COc1ccc([C@@H]2CCC(=O)OC2)cc1OC [Compound 21] | < 4.00 | <1 | 1 to 25 | – | IC50 [1, 7]: 1 to 10 µM; IC50 [2]: 1 to 10 µM; inhibition in vivo at 50 µg/ear [3, 8]: 32%
17 | COc1cc(CC2C[C@@H](c3ccc(OC)c(OC4CCCC4)c3)COC2=O)ccc1OCc1ccccc1 (stereo partly drawn) [Compound 42] | < 4.00 | <1 | 1 to 25 | – | IC50 ([1]; ROS production, X marks this range, read-out: IC50 RANGE (μM) 10-100): 10 to 100 µM; inhibition in vivo at 100 mg/kg ([3]; Mus musculus): 38%; inhibition in vivo at 10 mg/kg ([3]; Mus musculus, oral administration, 10 mg/kg): 41%
18 | CCCCOc1cc([C@@H]2CCC(=O)OC2)ccc1OC [Compound 99] | < 4.00 | >1 | – | < 1 | inhibition in vivo at 100 mg/kg ([3]; Mus musculus): 88%; inhibition in vivo at 50 µg/ear [3, 8]: 98%; EC50 [6, 10]: 0.1 to 1 µM
